Experiment [1] in a line: administration of three kinds of samples for 2 months to groups of 30 persons. The experiment is classed as in vivo. Conditions: numbers of the persons; administered for 2 months; group of 30 persons. An excerpt: (a) a sample of cholic acid alone,
(b) a sample of soybean isoflavone glycoside alone, and
were each administered for 2 months to each group containing 30 persons to be tested.

The nature of experiment [2]: preliminary administration experiment. Conditions: several persons who ingested the substance alone. The experiment is classed as in vivo.

Each structure is given as a SMILES string.

On to `C[C@H](CCC(=O)O)[C@H]1CC[C@H]2[C@@H]3[C@H](O)C[C@@H]4C[C@H](O)CC[C@]4(C)[C@H]3C[C@H](O)[C@]12C` [cholic acid], for which, in experiment [1], the “Alcoholic beverage tasted good” value is listed as 8 Persons, the Evacuation became easy was found to be 1 Person Persons, the Feces amount increased result is listed as “No Person” and the No hangover noted is given as 4 Persons. The “Significantly recovered from fatigue” value in experiment [1] is “No Person”. Besides, the “troubles by drinking an alcoholic beverage” value in experiment [2] is recorded as “ameliorated”.

(Values after US6793943B2, “Health food products” (priority 2000, dated 2004).)
